Measured values taken from patent publication US20250032490A1, “THERAPEUTIC REGIMENS FOR TREATMENT OF PAROXYSMAL NOCTURNAL HEMOGLOBINURIA” (Achillion Pharmaceuticals, Inc., priority 2017, published 2025).

How the values were obtained:
[1] = test system: PNH erythrocytes; assay: CAP-mediated hemolysis assay with PNH erythrocytes (subject A); format: cell-based, human; conditions: for inhibition at 0.0234 µM: Compound 1 0.0234 μM; for inhibition at 0.0469 µM: Compound 1 0.0469 μM; for inhibition at 0.0938 µM: Compound 1 0.0938 μM; for inhibition at 0.1875 µM: Compound 1 0.1875 μM; for inhibition at 0.188 µM: Compound 1 0.188 μM; for inhibition at 0.375 µM: Compound 1 0.375 μM; for inhibition at 0.75 µM: Compound 1 0.75 μM; for inhibition at 1.5 µM: Compound 1 1.5 μM
Method: Complement-preserved normal human serum (NHS) from an individual donor of ABO blood group type AB (NHS-AB) was purchase from BioreclamationIVT (Westbury, NY). Gelatin veronal buffer (GVB), pH 7.3, without Ca^++ and Mg^++ (GVB^0) and 100 mM MgCl2 +100 mM EGTA (MgEGTA) were obtained from Complement Technology Inc. (Tyler, TX).
GVB^0·MgEGTA was prepared by mixing GVB^0 and 100 mM MgEGTA in a 9:1 ratio. PNH erythrocytes were used within five days of blood collection; before assay cells were collected by centrifugation at 800×g and 4° C. for 3 minutes and resuspended in fresh cold GVB^0·MgEGTA to a density of 5×10^8 cells/mL.
50 μL of NHS-AB was added to each well. The plates were mixed and incubated at room temperature for 5 minutes. 24 μL of this NHS-AB with compound was then transferred to duplicate wells of V-bottom microtiter plates each containing 76 μL GVB0·MgEGTA. 20 μL PNH erythrocytes was then added to each well and the plates were sealed, mixed, and incubated at 37° C. for 30 minutes with an added shaking for 15 minutes. […] Following incubation, PNH cells were removed by centrifugation at 800×g and 4° C. for 3 minutes, 100 μL supernatant per well was transferred to flat-bottom clear microtiter plates, and A405 of the supernatant was measured in a Molecular Devices Spectramax Plus plate reader.
Combinatorial interactions were analyzed via two methods.
Inhibition was analyzed by the method of Prichard and Shipman (Prichard, M. N. and C. Shipman, Jr. A Three-Dimensional Model to Analyze Drug-Drug Interactions. Antiviral Research 1990, 14:181-205) Three-dimensional surface graphs of each experiment were generated and analyzed using an Excel spreadsheet program adapted from the MacSynergy II spreadsheet (University of Alabama, Birmingham, AL). The X-axis and Y-axis of each surface graph represent the concentrations of the two test compounds, and the Z-axis represents the difference between measured inhibition and a theoretically determined additive inhibition. For an additive relationship, the surface graph resembles a horizontal plane at Z=0, whereas positive surface peaks indicate greater inhibition than expected and therefore synergy, and negative surface peaks indicate less inhibition than expected and therefore antagonism.
Synergy and antagonism volumes were calculated separately as the summed volumes of peaks respectively above and below the Z=0 plane. Volumes were determined using 95% confidence limits to assure significance.
Inhibition was analyzed by the method of Chou and Talalay (Chou, T.-C. and P. Talalay. Analysis of Combined Drug Effects: A New Look at a Very Old Problem. Trends Pharmacol. Sci. 1983, 4:450-454; Chou, T. C. Theoretical basis, experimental design, and computerized simulation of synergism and antagonism in drug combination studies. Pharmacological Reviews 2006, 58:621-681). Analysis using the median-effect equation of Chou and Talalay was performed with CompuSyn software (ComboSyn, Inc, Paramus, NJ). […] Combination index (CI) values were determined at inhibition values of 50%, 75%, and 90%.

[2] = test system: C3 fragment deposition on rabbit erythrocytes; assay: C3 fragment deposition on rabbit erythrocytes (flow cytometry); format: cell-based; conditions: Oryctolagus cuniculus, Erythrocyte; 20% C5-depleted normal human serum; read-out: IC50, inhibition of C3 fragment deposition on rabbit erythrocytes
Method: Rabbit erythrocytes, C5-depleted normal human serum (C5-Dpl NHS), gelatin veronal buffer (GVB) without Ca^++ and Mg (GVB^0), 100 mM MgCl2+100 mM EGTA (MgEGTA) were obtained from Complement Technology Inc. (Tyler, TX). GVB^0·MgEGTA was prepared by mixing GVB^0 and 100 mM MgEGTA in a 9:1 ratio. FITC-conjugated anti-C3c antibody (cat#ab4212) and Alexa Fluor® 647-conjugated anti human CD59 antibody (cat#: ab187769) were purchased from Abcam (Cambridge, MA).
Reactions were incubated at 37° C. for 15 minutes, the reactions were quenched by addition of EDTA at a final concentration of 20 mM. Cells were stained with a FITC-conjugated anti-C3c antibody at a dilution of 1:200 and C3 fragment deposition on the surface of rabbit erythrocytes was assessed by flow cytometry with BD Accuri C6 cytometer (BD Biosciences, San Jose, CA). Forward and side scatter parameters were used to gate intact erythrocytes. Controls included cells labeled with FITC-conjugated antibody isotype control. IC50 values from each experiment were determined by curve-fitting of experimental data (the % C3 fragment-positive cells at increasing concentrations of inhibitor) to the four-parameter sigmoidal dose-response equation using non-linear regression analysis (Prism Software, GraphPad, La Jolla, CA).

[3] = Homo sapiens, Erythrocyte, Experiment 2, Eculizumab 0-400 μg/mL
[4] = Homo sapiens, Erythrocyte, Experiment 2, Compstatin 0-300 μM
[5] = Homo sapiens, Erythrocyte, Experiment #1, Compstatin 0-300 μM
[6] = Homo sapiens, Erythrocyte, Experiment #1, Eculizumab 0-400 μg/mL

## CC(=O)c1nn(CC(=O)N2C[C@H](F)C[C@H]2C(=O)Nc2cccc(Br)n2)c2ccc(-c3cnc(C)nc3)cc12 [Compound 1, (2S,4R)-1-(2-(3-acetyl-5-(2-methylpyrimidin-5-yl)-1H-indazol-1-yl)acetyl)-N-(6-bromopyridin-2-yl)-4-fluoropyrrolidine-2-carboxamide]
[1]; [3]
  inhibition at 0.0234 µM: 0%
  inhibition at 0.0469 µM: 0%
  inhibition at 0.0938 µM: 0%
  inhibition at 0.188 µM: 7%
  inhibition at 0.375 µM: 27%
  inhibition at 0.75 µM: 42%
  inhibition at 1.5 µM: 77%
[1]; [4]
  inhibition at 0.0938 µM: 0%
  inhibition at 0.1875 µM: 6%
  inhibition at 0.375 µM: 27%
  inhibition at 0.75 µM: 65%
  inhibition at 1.5 µM: 90%
[1]; Homo sapiens, Erythrocyte, Experiment 2, Compound 1 3 μM, Compstatin 0-300 μM
  inhibition at 3 µM: 97%
[1]; Homo sapiens, Erythrocyte, Experiment 2, Compound 1 6 μM, Compstatin 0-300 μM
  inhibition at 6 µM: 97%
[1]; [5]
  inhibition at 0.0234 µM: 0%
  inhibition at 0.0469 µM: 0%
  inhibition at 0.0938 µM: 0%
  inhibition at 0.1875 µM: 11%
  inhibition at 0.375 µM: 19%
  inhibition at 0.75 µM: 51%
  inhibition at 1.5 µM: 80%
[1]; [6]
  inhibition at 0.0234 µM: 4%
  inhibition at 0.0469 µM: 2%
  inhibition at 0.0938 µM: 6%
  inhibition at 0.188 µM: 14%
  inhibition at 0.375 µM: 24%
  inhibition at 0.75 µM: 55%
  inhibition at 1.5 µM: 86%
[1]; Homo sapiens, Erythrocyte, AP activity in vitro
  IC50: 14 nM
[1]; single agent, PNH erythrocytes
  inhibition at the high end of the test concentration ranges: complete inhibition
[2]
  IC50: 96 ± 21 nM
